Laboratory results: patent US20230104281A1, “FLUORESCENT RHODAMINE DYES WITH ENHANCED CELL PERMEABILITY” (Max-Planck-Gesellschaft zur Foerderung der Wissenschaften …, priority 2020, published 2023)

How the values were obtained:
[1] = Absorbance in 1,4-dioxane-water mixtures (D50, spirolactone-zwitterion equilibrium); type: physicochemical; details: 1,4-Dioxane-Water with constant 0.3% SDS additive; dielectric constant at which absorbance is halved
Protocol: The D50 values indicated herein are determined by measuring the respective absorbance of a sample (dye isomer or derivative or conjugate thereof), in varied water-1,4-dioxane mixtures with known dielectric constants according to an established method (e.g. Åkerlöf G, Short AO. J Am Chem Soc 1936, 58(7): 1241-1243). D50 is commonly used as numeric value for the evaluation of the equilibrium changes and represents a dielectric constant at which absorbance is halved (Butkevich A. N.; Mitronova G. Y.; Sidenstein. S. C.; Klocke J. L.; Kamin D.; Meineke D. N. H.; D'Este E.; Kraemer P. T.; Danzl J. G.; Belov V. N.; Hell S. W., Angew. Chem. Int. Ed. 2016, 55, 3290-3294).
The D50 values were calculated using the following equation:
(§1) where A0—absorbance at λmax at εr=0, λmax—the highest reached absorbance at λmax, d—dielectric constant of 1,4-dioxane-water mixture at a given point, Hill—Hill slope coefficient determining the steepness of a dose-response curve, D50—corresponds to d value that provokes half of the absorbance amplitude (λmax−A0).
Measurements of the absorbance changes in 1,4-dioxane-water mixtures were performed by pipetting 2 μL stock solutions of dyes or probes in DMSO into a 96 glass bottom well plate (11 wells per sample) made from propylene (Corning 3364). To the wells going from right to left 300 μL of 1,4-dioxane-water mixtures containing 100%, 90%, 80%, 70%, 60%, 50%, 40%, 30%, 20%, 10% or 0% 1,4-dioxane was added (if needed, mixtures with 0.3% SDS are used, with an exception in 100% dioxane due to solubility issues). After incubation for 1 hour at room temperature, absorption of solutions in each well was recorded from 320 nm to 850 nm with wavelength step size of 1 nm on a multiwell plate reader Spark® 20M (Tecan). The background absorption of the glass bottom plate was measured in wells containing only 1,4-dioxane-water mixture with similar amount of DMSO and subtracted from the spectra of the samples. […]
as §1, with “λmax.” for “λmax,”
The ability of the fluorophores to switch between spirolactone and zwitterion states can be characterized by measuring the absorbance in water-1,4-dioxane mixtures with known dielectric constant (Åkerlöf G, Short A O. J Am Chem Soc 1936, 58(7): 1241-1243). D50 is commonly used as numeric value for the evaluation of the equilibrium changes and represents a dielectric constant at which absorbance is halved.

HeLa cells = assay: Cell cycle analysis by imaging flow cytometry and EC50 determination (subG1 cells, cytotoxicity of tubulin probes); type: cell-based; details: 24 h incubation at 37° C. in growth media; compared with parent compound larotaxel
Protocol: HeLa cells were grown in 6-well plates (^˜250.000 cells per well) for 24 h in the presence of the fluorescent probe in variable concentrations. The probes were dissolved in DMSO at 500-2000-fold stock concentration and added to the media of cultured cells at 500-2000-fold dilution accordingly. In parallel, the appropriate DMSO control samples were prepared by adding corresponding amount of DMSO volume to the separate well. Cells were processed according to the NucleoCounter® NC-3000™ two-step cell cycle analysis protocol for cells attached to T-flasks, cell culture plates or micro-carriers. […] Cells were counted on a NucleoCounter® NC-3000™ in NC-Slide A2™ slides (Chemometec, Cat. No. 942-0001) loaded with ˜30 μl of each of the cell suspensions into the chambers of the slide. Each time, ^˜10.000 cells in total were measured, and the obtained cell cycle histograms were analysed with ChemoMetec NucleoView NC-3000 software, version 2.1.25.8. […] The EC50 values were determined by plotting the percentage of cells in subG1 phase and fitting the curve in GraphPad Prism 6 to the following function: […]
As mentioned above, FIG. 3. illustrates the tubulin labelling of mammalian cells: a, structures of the tubulin probes. b, Wide-field fluorescence microscopy of living primary fibroblasts stained 100 nM TMR-LTX isomers for 1 h at 37° C. […]

tubulin = assay: Wide-field fluorescence microscopy of living primary fibroblasts stained with tubulin probes; type: cell-based, human
Protocol: Human primary dermal fibroblasts and HeLa cells were cultured in high-glucose DMEM (Life Technologies, Cat. No. 31053-028) supplemented with GlutaMAX-1 (Life Technologies, Cat. No. 35050-038) and 10% fetal bovine serum (FBS, Life Technologies, Cat. No. 10270-106) in a humidified 5% CO2 incubator at 37° C. The cells were split every 3-4 days or at confluence. Cells were seeded in glass bottom 12-well plates (MatTek Corporation, Cat. No. P12G-1.0-14-F).
Cells were stained with the fluorescent probes in DMEM (Thermo Fisher Scientific, Cat. No. 31053-028) supplemented with 10% FBS (Thermo Fisher Scientific, Cat. No. 10082139) at 37° C. and 5% CO2. […]
Actin/tubulin cytosolic signal was estimated using CellProfiler v.3.1.8. […] The background was subtracted from the original probe channel, and actin/tubulin staining was measured as mean pixel intensity per object in background-corrected probe channel. […]
As mentioned above, FIG. 3. illustrates the tubulin labelling of mammalian cells: a, structures of the tubulin probes. b, Wide-field fluorescence microscopy of living primary fibroblasts stained 100 nM TMR-LTX isomers for 1 h at 37° C. […] Hoechst staining is shown in cyan and all tubulin probes were shown in magenta. c, Quantification of fluorescence signal in the cytoplasm of living cells stained with tubulin probes. […]

| SMILES | D50 [1] | EC50, accumulation of subG1 phase cells (cytotoxicity) (HeLa cells) | membrane permeability (tubulin; living cells, 100 nM probe, 1 h at 37° C., compared to 5′- and 6′-isomers) | tubulin labelling specificity (tubulin; mammalian cells, simple incubation with probe) |
| --- | --- | --- | --- | --- |
| CNc1ccc2c(c1)C(C)(C)c1cc(NC)ccc1C21OC(=O)c2c(C(=O)NCCCCCCCC(=O)N[C@@H](c3ccccc3)[C@@H](O)C(=O)O[C@H]3C[C@@]4(O)[C@@H](OC(=O)c5ccccc5)[C@@H]5[C@]6(OC(C)=O)CO[C@@H]6C[C@@H]6C[C@@]65C(=O)[C@H](OC(C)=O)C(=C3C)C4(C)C)cccc21 [580CP-LTX 4′-isomer] | 62 ± 1 | – | – | – |
| CO[C@H]1C(=O)[C@]2(C)[C@@H](OC)C[C@H]3OC[C@@]3(OC(C)=O)[C@H]2[C@H](OC(=O)c2ccccc2)[C@]2(O)C[C@H](OC(=O)[C@H](O)[C@@H](NC(=O)CCCCCCCNC(=O)c3cccc4c3C(=O)OC43c4ccc(N(C)C)cc4C(C)(C)c4cc(N(C)C)ccc43)c3ccccc3)C(C)=C1C2(C)C [610CP-CTX 4′-isomer] | 65 ± 2 | – | – | – |
| CO[C@H]1C(=O)[C@]2(C)[C@@H](OC)C[C@H]3OC[C@@]3(OC(C)=O)[C@H]2[C@H](OC(=O)c2ccccc2)[C@]2(O)C[C@H](OC(=O)[C@H](O)[C@@H](NC(=O)CCCCCCCNC(=O)c3cccc4c3C(=O)OC43c4ccc(N(C)C)cc4[Si](C)(C)c4cc(N(C)C)ccc43)c3ccccc3)C(C)=C1C2(C)C [SiR-CTX 4′-isomer] | >80 | – | – | – |
| CC(=O)O[C@H]1C(=O)[C@]23C[C@H]2C[C@H]2OC[C@@]2(OC(C)=O)[C@H]3[C@H](OC(=O)c2ccccc2)[C@]2(O)C[C@H](OC(=O)[C@H](O)[C@@H](NC(=O)CCCCCCCNC(=O)c3cccc4c3C(=O)OC43c4ccc(N(C)C)cc4Oc4cc(N(C)C)ccc43)c3ccccc3)C(C)=C1C2(C)C [TMR-LTX 4′-isomer] | 26.5 ± 0.5 | almost as efficiently as parent compound | excellent membrane permeability | highly specific tubulin labelling |
